Data from paper PMC8592419 (PLoS ONE, 2021).
Where a SMILES comes first, the peptide text is derived from it.

Key:
[1] = test system: M. abscessus clinical isolate MAB10; assay: microbe, parasite or virus in culture; format: cell-based, M. abscessus subsp. abscessus
Description: (§1) Mab suspensions at a 5×10^5 CFU/ml final concentration were added to each well and incubated for 3 days and 14 days at 37°C. MIC values were defined when the percent killing of CFUs of more than 90% were compared to the media controls without AMPs or drugs. The fraction inhibitory concentration index (FICI) was calculated using the following formula: FICI = [C(MIC^A)/MIC^A] + [C(MIC^B)/MIC^B]. […] For interpretation, FICI ≤ 0.5 was interpreted as synergism, FICI >0.5–1.0 was interpreted as additive, FICI >1.0–4.0 was interpreted as indifferent and FICI >4.0 was interpreted as antagonism.

[2] = test system: M. abscessus clinical isolate MAB11; assay: microbe, parasite or virus in culture; format: cell-based, M. abscessus subsp. abscessus
Description: as §1

[3] = test system: M. abscessus clinical isolate MAB07; assay: microbe, parasite or virus in culture; format: cell-based, M. abscessus subsp. abscessus
Description: as §1

[4] = test system: M. abscessus clinical isolate MAB03; assay: microbe, parasite or virus in culture; format: cell-based, M. abscessus subsp. abscessus
Description: as §1

[5] = test system: M. abscessus clinical isolate MAB01; assay: microbe, parasite or virus in culture; format: cell-based, M. abscessus subsp. abscessus
Description: as §1

[6] = test system: M. abscessus clinical isolate MAB05; assay: microbe, parasite or virus in culture; format: cell-based, M. abscessus subsp. abscessus
Description: as §1

[7] = test system: M. abscessus clinical isolate MAB09; assay: microbe, parasite or virus in culture; format: cell-based, M. abscessus subsp. abscessus
Description: as §1

[8] = test system: M. abscessus clinical isolate MAB02; assay: microbe, parasite or virus in culture; format: cell-based, M. abscessus subsp. abscessus
Description: as §1

[9] = test system: M. abscessus clinical isolate MAB12; assay: microbe, parasite or virus in culture; format: cell-based, M. abscessus subsp. massiliense
Description: as §1

[10] = test system: M. abscessus clinical isolate MAB14; assay: microbe, parasite or virus in culture; format: cell-based, M. abscessus subsp. massiliense
Description: as §1

[11] = test system: M. abscessus clinical isolate MAB06; format: cell-based, M. abscessus subsp. abscessus; settings: 3 days at 37°C
Description: (§2) Briefly, serial dilutions of the AMPs were prepared with potassium phosphate buffer (PPB) from the concentration range of 3.125 to 400 μg/ml and then 50 μl of each dilution were added to each 96-well plate. Colonies of the isolate were suspended and then further diluted in Mueller-Hinton broth to obtain a final concentration of 1×10^3 CFU/ml (optimized according to the available AMP stock concentration). Fifty microliters of this inoculum were added to each well of the plates. The plates were incubated for 3 days at 37°C. Plain media and bacterial suspensions without AMPs were used as negative and positive controls. The MIC values were read and recorded. All assays were performed in duplicate and two independent experiments.
(§3) For the in vitro antimicrobial susceptibility, the same protocol as described above was used. The culture plates were further incubated up to 3 days at 37°C. The MIC values were read and recorded.

[12] = test system: M. abscessus clinical isolate MAB15; assay: In vitro antimicrobial susceptibility of potential AMPs, broth microdilution, 3 days; format: cell-based, M. abscessus subsp. massiliense; settings: 3 days at 37°C
Description: as §2, §3

[13] = test system: M. abscessus clinical isolate MAB16; assay: as above; format: cell-based, M. abscessus subsp. massiliense; settings: 3 days at 37°C
Description: as §2, §3

[14] = test system: human peripheral blood mononuclear cells (PBMCs); assay: PBMC toxicity, trypan blue exclusion assay; format: cell-based; settings: 1 h at 37°C, mean±SD of duplicates, two independent experiments
Description: For the toxicity of the potential AMPs to human peripheral blood mononuclear cells (PBMCs), the trypan blue exclusion assay was used. Fresh human PBMCs were prepared from blood samples of healthy volunteers using the Ficoll density gradient technique. The cells were centrifuged at 1,800 rpm for 20 min at 20°C and washed three times with PBS and adjusted with RPMI-1640 medium into 6.25×10^5 cells/ml. Fifty microliters of PBMC suspension and 50 μl of AMP solutions (6.25–400 μg/ml) were added to the 96-well microtiter plates and incubated for 1 h at 37°C. Then, 20 μl of the samples were mixed with 20 μl of 0.4% (w/v) trypan blue solution (0.81% NaCl and 0.06% (w/v) dibasic potassium phosphate) in microtubes and incubated for 3 min at room temperature. The PBMC suspensions treated with PBS were used as negative controls. PBMCs were counted using a dual-chamber hemocytometer under a light microscope. Viable and non-viable cells were counted under a microscope and the percentage of viable cells was calculated using the following formula: % of viable cells = [1.00 –([…] / Number of total cells)] × 100. All assays were performed in duplicate with two independent experiments.

[15] = test system: M. abscessus clinical isolate MAB13; format: cell-based, M. abscessus subsp. massiliense; settings: 3 days at 37°C
Description: as §2, §3

[16] = Mycobacteroides abscessus, read-out: MIC of CLA

With `CC[C@H]1OC(=O)[C@H](C)[C@@H](O[C@H]2C[C@@](C)(OC)[C@@H](O)[C@H](C)O2)[C@H](C)[C@@H](O[C@@H]2O[C@H](C)C[C@H](N(C)C)[C@H]2O)[C@](C)(OC)C[C@@H](C)C(=O)[C@H](C)[C@@H](O)[C@]1(C)O` [CLA, Clarithromycin] the “MIC of CLA, combined CLA + S61” value ([1]; MAB10, checkerboard, in combination with S61) was 32 µg/mL, the “MIC of CLA, combined CLA + S62” value ([1]; MAB10, checkerboard, in combination with S62) was 32 µg/mL and the “MIC of CLA, combined CLA + S63” value ([1]; MAB10, checkerboard, in combination with S63) was 8 µg/mL. The MIC [1, 16] was 1020 µg/mL, the “MIC of CLA, combined CLA + S61” value ([2]; MAB11, checkerboard, in combination with S61) was 128 µg/mL and the “MIC of CLA, combined CLA + S62” value ([2]; MAB11, checkerboard, in combination with S62) was 192 µg/mL. The “MIC of CLA, combined CLA + S63” value ([2]; MAB11, checkerboard, in combination with S63) was 192 µg/mL, the MIC [2, 16] was 512 µg/mL and the “MIC of CLA, combined CLA + S61” value ([3]; MAB07, checkerboard, in combination with S61) was 0.25 µg/mL. For the same compound, the “MIC of CLA, combined CLA + S62” value ([3]; MAB07, checkerboard, in combination with S62) was 0.25 µg/mL, the “MIC of CLA, combined CLA + S63” value ([3]; MAB07, checkerboard, in combination with S63) was 0.25 µg/mL and the MIC [3, 16] was 16 µg/mL. The “MIC of CLA, combined CLA + S61” value ([4]; MAB03, checkerboard, in combination with S61) was 2 µg/mL, the “MIC of CLA, combined CLA + S62” value ([4]; MAB03, checkerboard, in combination with S62) was 1.5 µg/mL and the “MIC of CLA, combined CLA + S63” value ([4]; MAB03, checkerboard, in combination with S63) was 4 µg/mL. The MIC [4, 16] was 8 µg/mL, the “MIC of CLA, combined CLA + S61” value ([5]; MAB01, checkerboard, in combination with S61) was 32 µg/mL and the “MIC of CLA, combined CLA + S62” value ([5]; MAB01, checkerboard, in combination with S62) was 96 µg/mL. For the same compound, the MIC [5, 16] was 1020 µg/mL, the “MIC of CLA, combined CLA + S61” value ([6]; MAB05, checkerboard, in combination with S61) was 16 µg/mL and the “MIC of CLA, combined CLA + S62” value ([6]; MAB05, checkerboard, in combination with S62) was 16 µg/mL. For the same compound, the “MIC of CLA, combined CLA + S63” value ([6]; MAB05, checkerboard, in combination with S63) was 16 µg/mL, the MIC [6, 16] was 16 µg/mL and the “MIC of CLA, combined CLA + S61” value ([7]; MAB09, checkerboard, in combination with S61) was 8 µg/mL. The “MIC of CLA, combined CLA + S62” value ([7]; MAB09, checkerboard, in combination with S62) was 6 µg/mL, the “MIC of CLA, combined CLA + S63” value ([7]; MAB09, checkerboard, in combination with S63) was 4 µg/mL and the MIC [7, 16] was 8 µg/mL. For the same compound, the “MIC of CLA, combined CLA + S61” value ([8]; MAB02, checkerboard, in combination with S61) was 64 µg/mL, the “MIC of CLA, combined CLA + S62” value ([8]; MAB02, checkerboard, in combination with S62) was 64 µg/mL and the “MIC of CLA, combined CLA + S63” value ([8]; MAB02, checkerboard, in combination with S63) was 64 µg/mL. For the same compound, the MIC [8, 16] was 64 µg/mL, the “MIC of CLA, combined CLA + S61” value ([9]; MAB12, checkerboard, in combination with S61) was 1,024 μg/ml and the “MIC of CLA, combined CLA + S62” value ([9]; MAB12, checkerboard, in combination with S62) was 1,024 μg/ml. The “MIC of CLA, combined CLA + S63” value ([9]; MAB12, checkerboard, in combination with S63) was 1,024 μg/ml, the MIC [9, 16] was 1020 µg/mL and the “MIC of CLA, combined CLA + S61” value ([10]; MAB14, checkerboard, in combination with S61) was 4 µg/mL. For the same compound, the “MIC of CLA, combined CLA + S62” value ([10]; MAB14, checkerboard, in combination with S62) was 4 µg/mL, the “MIC of CLA, combined CLA + S63” value ([10]; MAB14, checkerboard, in combination with S63) was 32 µg/mL and the MIC [10, 16] was 512 µg/mL.
With `CC[C@H](C)[C@H](NC(=O)[C@H](CCCCN)NC(=O)[C@H](CCCNC(=N)N)NC(=O)CNC(=O)[C@H](CC(C)C)NC(=O)[C@H](CO)NC(=O)[C@H](CCCNC(=N)N)NC(=O)[C@H](CC(C)C)NC(=O)CNC(=O)CN)C(=O)N[C@@H](CC(C)C)C(=O)N[C@@H](CCCNC(=N)N)C(=O)N[C@@H](C)C(=O)N[C@@H](Cc1c[nH]c2ccccc12)C(=O)N[C@@H](CCCCN)C(=O)N[C@@H](CCCCN)C(=O)N[C@@H](Cc1ccc(O)cc1)C(=O)O` [S61] (H-GGLRSLGRKILRAWKKY-OH) the “Antimicrobial peptides against M. abscessus isolates, MIC value” (from here on “Antimicrobial peptides”) [11] was over 400 µg/mL, the “Antimicrobial peptides” value [12] was over 400 µg/mL and the “Antimicrobial peptides” value [13] was over 400 µg/mL. For the same compound, the FICI ([1]; MAB10, AMP + CLA, mean ± S.D., two independent experiments) was 0.05±0.00, the “MIC, AMP alone” value ([1]; MAB10, AMP alone) was over 400 µg/mL and the FICI ([2]; MAB11, AMP + CLA, mean ± S.D., two independent experiments) was 0.67±0.08. The “MIC, AMP alone” value ([2]; MAB11, AMP alone) was over 400 µg/mL, the FICI ([3]; MAB07, AMP + CLA, mean ± S.D., two independent experiments) was 0.03±0.00 and the “MIC, AMP alone” value ([3]; MAB07, AMP alone) was over 400 µg/mL. The FICI ([4]; MAB03, AMP + CLA, mean ± S.D., two independent experiments) was 0.28±0.00, the “MIC, AMP alone” value ([4]; MAB03, AMP alone) was 6.25 µg/mL and the FICI ([5]; MAB01, AMP + CLA, mean ± S.D., two independent experiments) was 0.41±0.17. The FICI ([6]; MAB05, AMP + CLA, mean ± S.D., two independent experiments) was 1.01±0.00, the “MIC, AMP alone” value ([6]; MAB05, AMP alone) was over 400 µg/mL and the FICI ([7]; MAB09, AMP + CLA, mean ± S.D., two independent experiments) was 1.01±0.00. For the same compound, the “MIC, AMP alone” value ([7]; MAB09, AMP alone) was over 400 µg/mL, the FICI ([8]; MAB02, AMP + CLA, mean ± S.D., two independent experiments) was 1.02±0.00 and the “MIC, AMP alone” value ([8]; MAB02, AMP alone) was over 400 µg/mL. The FICI ([9]; MAB12, AMP + CLA, mean ± S.D., two independent experiments) was 1.01±0.00, the “MIC, AMP alone” value ([9]; MAB12, AMP alone) was over 400 µg/mL and the FICI ([10]; MAB14, AMP + CLA, mean ± S.D., two independent experiments) was 0.10±0.04. For the same compound, the “MIC, AMP alone” value ([10]; MAB14, AMP alone) was over 400 µg/mL, the “Viable cells of PBMCs (% viable cells)” value ([14]; 6.25 µg/mL) was 97.98±1.38% and the “Viable cells of PBMCs (% viable cells)” value ([14]; 12.5 µg/mL) was 94.40±0.56%. The “Viable cells of PBMCs (% viable cells)” value ([14]; 25 µg/mL) was 95.35±3.74%, the “Viable cells of PBMCs (% viable cells)” value ([14]; 50 µg/mL) was 87.35±7.57% and the “Viable cells of PBMCs (% viable cells)” value ([14]; 100 µg/mL) was 79.70±6.73%. For the same compound, the “Viable cells of PBMCs (% viable cells)” value ([14]; 200 µg/mL) was 38.76±0.82%, the “Viable cells of PBMCs (% viable cells)” value ([14]; 400 µg/mL) was 41.40±5.84% and the “Antimicrobial peptides” value [15] was over 400 µg/mL.
